Where two headings read alike, the source gives them in different places.
What was measured:
[1] = target: Her2 Exon 20 INSYVMA Ba/F3 (Homo sapiens, UniProt P04626, DUP772-775, cells depend on it); assay: Her2 Exon 20 INSYVMA Ba/F3 CellTiter-Glo; assay type: cell-based; conditions: 72 h, read-out: Her2 Exon 20 INSYVMA Ba/F3 CTG IC50
Method: (§1) 2. Measurement of Cellular Activity
(§2) The CellTiter-Glo Luminescent Cell Viability Assay (Promega) is a homogeneous method of determining the number of viable cells in culture. It is based on quantification of ATP, indicating the presence of metabolically active cells. Cells are seeded on day 1 at cell numbers that assure assay linearity and optimal signal intensity. After incubation for 24 h in humidified chambers at 37° C. and 5% CO2, compounds in DMSO are added at different concentrations. Cells are further incubated for 72 h at 37° C. and 5% CO2. Cells treated with the compound vehicle DMSO are used as positive controls and cells treated with 10 μM Staurosporine serve as negative controls. At day 5 the CellTiter Glo Reagent is prepared according to the instructions of the kit (Promega Inc.): Reagent is mixed 1:1 with cell culture medium. Thereon, mixture and assay plates are equilibrated at room temperature for 20 min. Equal volumes of the reagent-medium-mixture is added to the volume of culture medium present in each well. The plates are mixed at ˜200 rpm for 2 minutes on an orbital shaker. The microplates are then incubated at room temperature for 10 minutes for stabilization of the luminescent signal. Following incubation the luminescence is recorded on a Victor microplate reader (Perkin Elmer) using a 200 ms integration time. The data is then analyzed with Excel using the XLFIT Plugin (dose response Fit 205) for IC50-determination. As quality control the Z′-factor is calculated from 16 positive and negative control values. Only assay results showing a Z′-factor ≥0.5 are used for further analysis.
(§3) Inhibition is indicated as IC50 [nM] (“−”=not measured). Compounds having an activity designated as “A” provided an IC50≤100 nM; compounds having an activity designated as “B” provided an 100 nM<IC50≤500 nM; compounds having an activity designated as “C” provided an 500 nM<IC50≤1000 nM; compounds having an activity designated as “D” provided an 1000 nM<IC50≤10000 nM; and compounds having an activity designated as “E” provided an IC50>10000 nM.

[2] = target: T1, HER2 INS YVMA (Homo sapiens, UniProt P04626, INS775YVMA); assay: Lance Kinase Activity Assay, HER2 INS YVMA (Her2 Exon 20 INSYVMA Lance); assay type: biochemical
T1 construct: purchased DPF
Method: 1. Measurement of HER2 INS YVMA Kinase Activity
This protocol describes how the Lance Kinase Activity Assay was performed to determine IC50 values of compounds of general formula (I) against HER2 INS YVMA. The principle behind this enzymatic assay is based upon the phosphorylation of the Ulight-peptide substrate. It is detected by using a specific EU-labeled anti-phospho peptide antibody. The binding of the Eu labeled anti-phospho peptide antibody to the phosphorylated ULight labeled peptide gives rise to a FRET-signal.
Binding of an inhibitor to the kinase prevents phosphorylation of the Ulight-substrate, resulting in a loss of FRET. In table 2 is summarized the relevant information for the LANCE assay.
The compounds of general formula (I) summarized in Table 3 were serial diluted from a 10 mM DMSO stock solution 1:3 over 8 steps in a total volume of 20 μl.
For every sample, 8 μl of kinase-substrate mix was transferred into a suitable assay plate (e.g. Corning #3673). Compound was added via pintool transfer (10 nl/well) using a Biomek FX robot (BeckmanCoulter). Reaction was started by addition of 2 μl ATP working solution and mixed using variomag teleshaker (Thermo Fischer Scientific). After 1 h incubation at room temperature the reaction was stopped with 10 μl detection mix containing the Eu-labeled phosphospecific antibody and 10 mM EDTA. After a second incubation period of 1 h at room temperature the FRET signal was measured at 340 nm excitation, 665 nm and 615 nm emission (for the ULight-substrate and Eu-AB, respectively) with an Envision spectrophotometer (Perkin Elmer, Waltham, Mass., USA) with 50 μs delay and 300 μs integration time. IC50 values were determined from the sigmoidal dose response curves with the software Quattro Workflow (Quattro GmbH, Munich, Germany).

[3] = target: EGFR Exon 20 INSNPH Ba/F3 (Homo sapiens, UniProt P00533, DUP771-773, cells depend on it); assay: EGFR Exon 20 INSNPH Ba/F3 CellTiter-Glo; assay type: cell-based; conditions: 72 h, read-out: EGFR Exon 20 INSNPH Ba/F3 CTG IC50
Sequence of EGFR Exon 20 INSNPH Ba/F3 (P00533 with tags, fused parts or gaps DUP771-773): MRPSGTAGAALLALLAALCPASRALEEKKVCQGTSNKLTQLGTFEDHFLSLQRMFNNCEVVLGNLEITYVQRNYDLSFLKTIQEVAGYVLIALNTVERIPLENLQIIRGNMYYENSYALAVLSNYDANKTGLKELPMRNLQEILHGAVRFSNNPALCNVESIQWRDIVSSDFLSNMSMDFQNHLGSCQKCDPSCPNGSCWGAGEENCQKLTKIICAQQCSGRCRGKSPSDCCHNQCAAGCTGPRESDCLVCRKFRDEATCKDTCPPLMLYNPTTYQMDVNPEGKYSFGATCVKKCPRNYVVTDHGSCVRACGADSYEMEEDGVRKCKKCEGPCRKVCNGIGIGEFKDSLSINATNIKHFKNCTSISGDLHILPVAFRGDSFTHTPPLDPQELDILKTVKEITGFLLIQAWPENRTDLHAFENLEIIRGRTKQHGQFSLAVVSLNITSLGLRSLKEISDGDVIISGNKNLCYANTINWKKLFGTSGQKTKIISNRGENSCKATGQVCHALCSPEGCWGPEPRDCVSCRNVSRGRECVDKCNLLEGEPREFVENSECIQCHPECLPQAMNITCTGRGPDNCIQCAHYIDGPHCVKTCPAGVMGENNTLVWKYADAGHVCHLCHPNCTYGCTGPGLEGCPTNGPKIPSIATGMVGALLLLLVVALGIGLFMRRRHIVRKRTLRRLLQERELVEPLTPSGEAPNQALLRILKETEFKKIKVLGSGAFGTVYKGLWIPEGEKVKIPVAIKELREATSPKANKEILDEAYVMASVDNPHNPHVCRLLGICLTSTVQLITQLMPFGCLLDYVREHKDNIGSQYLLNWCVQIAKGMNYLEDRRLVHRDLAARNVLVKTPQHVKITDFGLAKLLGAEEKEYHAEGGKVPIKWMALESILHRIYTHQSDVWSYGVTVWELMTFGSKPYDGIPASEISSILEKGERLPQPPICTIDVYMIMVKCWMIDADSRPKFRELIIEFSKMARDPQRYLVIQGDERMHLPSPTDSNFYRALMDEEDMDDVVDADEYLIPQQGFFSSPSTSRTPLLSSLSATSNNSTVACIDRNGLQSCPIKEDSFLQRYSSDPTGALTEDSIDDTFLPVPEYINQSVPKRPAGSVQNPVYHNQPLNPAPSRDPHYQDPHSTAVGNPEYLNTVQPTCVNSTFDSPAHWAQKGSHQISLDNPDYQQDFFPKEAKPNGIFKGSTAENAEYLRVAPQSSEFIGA
Method: as §1, §2, §3

[4] = target: EGFR T790ML858R (Homo sapiens, UniProt P00533, L858R/T790M); assay: EGFR T790ML858R Lance assay; assay type: biochemical
Sequence of EGFR T790ML858R (P00533 25-1210 T790M/L858R): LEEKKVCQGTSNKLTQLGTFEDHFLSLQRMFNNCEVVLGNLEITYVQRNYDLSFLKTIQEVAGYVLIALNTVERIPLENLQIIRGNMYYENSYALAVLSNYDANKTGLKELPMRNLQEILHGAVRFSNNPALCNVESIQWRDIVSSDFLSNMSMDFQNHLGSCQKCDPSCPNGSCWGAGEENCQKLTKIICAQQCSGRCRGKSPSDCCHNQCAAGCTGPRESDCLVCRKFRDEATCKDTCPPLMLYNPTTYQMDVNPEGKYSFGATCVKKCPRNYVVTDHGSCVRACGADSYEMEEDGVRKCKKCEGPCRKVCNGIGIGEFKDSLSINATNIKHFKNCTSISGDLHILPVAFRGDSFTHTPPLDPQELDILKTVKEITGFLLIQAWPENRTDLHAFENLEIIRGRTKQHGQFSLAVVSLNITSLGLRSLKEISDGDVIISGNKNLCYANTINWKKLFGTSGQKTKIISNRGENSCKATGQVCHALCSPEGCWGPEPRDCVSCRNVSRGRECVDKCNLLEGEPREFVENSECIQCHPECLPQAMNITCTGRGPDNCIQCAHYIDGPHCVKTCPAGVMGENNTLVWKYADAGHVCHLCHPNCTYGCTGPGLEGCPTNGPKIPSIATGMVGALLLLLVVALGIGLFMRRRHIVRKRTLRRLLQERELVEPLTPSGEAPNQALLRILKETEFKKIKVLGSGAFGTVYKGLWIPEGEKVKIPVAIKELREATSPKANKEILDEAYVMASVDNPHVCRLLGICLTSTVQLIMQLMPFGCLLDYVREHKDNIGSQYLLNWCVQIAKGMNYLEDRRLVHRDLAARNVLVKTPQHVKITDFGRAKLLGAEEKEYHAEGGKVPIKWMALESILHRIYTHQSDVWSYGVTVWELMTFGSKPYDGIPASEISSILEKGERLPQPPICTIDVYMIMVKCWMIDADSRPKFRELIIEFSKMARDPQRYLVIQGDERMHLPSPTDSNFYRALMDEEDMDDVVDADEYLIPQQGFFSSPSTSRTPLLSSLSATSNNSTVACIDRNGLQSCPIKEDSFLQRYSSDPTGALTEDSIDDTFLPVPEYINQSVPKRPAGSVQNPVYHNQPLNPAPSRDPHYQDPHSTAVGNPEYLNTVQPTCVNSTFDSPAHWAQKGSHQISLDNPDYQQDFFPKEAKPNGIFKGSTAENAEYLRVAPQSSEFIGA
Method: (§4) Inhibition is indicated as […] [nM] (“−”=not measured). Compounds having an activity designated as “A” provided an IC50≤100 nM; compounds having an activity designated as “B” provided an 100 nM<IC50≤500 nM; compounds having an activity designated as “C” provided an 500 nM<IC50≤1000 nM; compounds having an activity designated as “D” provided an 1000 nM<IC50≤100000 nM; and compounds having an activity designated as “E” provided an IC50>10000 nM.

[5] = target: EGFR wt (Homo sapiens, UniProt P00533); assay: EGFR wt Lance assay; assay type: biochemical
Sequence of EGFR wt (P00533 25-1210): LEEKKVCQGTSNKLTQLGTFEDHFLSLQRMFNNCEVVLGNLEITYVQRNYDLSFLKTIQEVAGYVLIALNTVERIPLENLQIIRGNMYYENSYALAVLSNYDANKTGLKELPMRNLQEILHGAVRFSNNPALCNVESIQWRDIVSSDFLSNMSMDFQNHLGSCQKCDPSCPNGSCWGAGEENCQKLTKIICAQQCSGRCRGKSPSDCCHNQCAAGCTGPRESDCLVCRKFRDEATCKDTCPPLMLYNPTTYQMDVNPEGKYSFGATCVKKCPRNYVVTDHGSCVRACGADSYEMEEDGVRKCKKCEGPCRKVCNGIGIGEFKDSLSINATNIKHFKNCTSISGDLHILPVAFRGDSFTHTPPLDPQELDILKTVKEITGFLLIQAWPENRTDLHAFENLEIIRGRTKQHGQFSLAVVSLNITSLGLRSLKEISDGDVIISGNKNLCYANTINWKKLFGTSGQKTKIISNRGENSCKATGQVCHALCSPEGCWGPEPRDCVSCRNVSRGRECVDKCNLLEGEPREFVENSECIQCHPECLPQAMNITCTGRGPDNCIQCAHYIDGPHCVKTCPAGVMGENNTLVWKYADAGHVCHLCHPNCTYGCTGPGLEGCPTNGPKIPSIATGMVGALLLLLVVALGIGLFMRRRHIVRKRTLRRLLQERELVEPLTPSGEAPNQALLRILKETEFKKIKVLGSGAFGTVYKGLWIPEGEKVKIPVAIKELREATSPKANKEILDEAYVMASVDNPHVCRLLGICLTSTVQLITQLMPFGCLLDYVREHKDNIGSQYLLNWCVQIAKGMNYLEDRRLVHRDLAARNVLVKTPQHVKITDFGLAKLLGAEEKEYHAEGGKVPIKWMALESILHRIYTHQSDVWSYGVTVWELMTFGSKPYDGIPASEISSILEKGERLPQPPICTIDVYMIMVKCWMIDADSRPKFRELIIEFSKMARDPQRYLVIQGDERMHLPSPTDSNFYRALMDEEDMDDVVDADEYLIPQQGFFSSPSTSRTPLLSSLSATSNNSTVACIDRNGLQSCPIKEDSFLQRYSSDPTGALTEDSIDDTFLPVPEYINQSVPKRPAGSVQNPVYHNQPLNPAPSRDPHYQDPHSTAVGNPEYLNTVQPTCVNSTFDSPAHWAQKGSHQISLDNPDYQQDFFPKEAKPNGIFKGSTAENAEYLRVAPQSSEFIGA
Method: as §4

[6] = tested on: H1975; assay: H1975 CellTiter-Glo; assay type: cell-based; conditions: Homo sapiens, NCI-H1975; 72 h compound incubation; read-out: H1975 CTG IC50
Method: as §1, §2, §4

[7] = tested on: A431; assay: A431 CellTiter-Glo; assay type: cell-based; conditions: Homo sapiens, A-431; 72 h compound incubation; read-out: A431 CTG IC50
Method: as §1, §2, §4

Sequence of Her2 Exon 20 INSYVMA Ba/F3 (P04626 with tags, fused parts or gaps DUP772-775): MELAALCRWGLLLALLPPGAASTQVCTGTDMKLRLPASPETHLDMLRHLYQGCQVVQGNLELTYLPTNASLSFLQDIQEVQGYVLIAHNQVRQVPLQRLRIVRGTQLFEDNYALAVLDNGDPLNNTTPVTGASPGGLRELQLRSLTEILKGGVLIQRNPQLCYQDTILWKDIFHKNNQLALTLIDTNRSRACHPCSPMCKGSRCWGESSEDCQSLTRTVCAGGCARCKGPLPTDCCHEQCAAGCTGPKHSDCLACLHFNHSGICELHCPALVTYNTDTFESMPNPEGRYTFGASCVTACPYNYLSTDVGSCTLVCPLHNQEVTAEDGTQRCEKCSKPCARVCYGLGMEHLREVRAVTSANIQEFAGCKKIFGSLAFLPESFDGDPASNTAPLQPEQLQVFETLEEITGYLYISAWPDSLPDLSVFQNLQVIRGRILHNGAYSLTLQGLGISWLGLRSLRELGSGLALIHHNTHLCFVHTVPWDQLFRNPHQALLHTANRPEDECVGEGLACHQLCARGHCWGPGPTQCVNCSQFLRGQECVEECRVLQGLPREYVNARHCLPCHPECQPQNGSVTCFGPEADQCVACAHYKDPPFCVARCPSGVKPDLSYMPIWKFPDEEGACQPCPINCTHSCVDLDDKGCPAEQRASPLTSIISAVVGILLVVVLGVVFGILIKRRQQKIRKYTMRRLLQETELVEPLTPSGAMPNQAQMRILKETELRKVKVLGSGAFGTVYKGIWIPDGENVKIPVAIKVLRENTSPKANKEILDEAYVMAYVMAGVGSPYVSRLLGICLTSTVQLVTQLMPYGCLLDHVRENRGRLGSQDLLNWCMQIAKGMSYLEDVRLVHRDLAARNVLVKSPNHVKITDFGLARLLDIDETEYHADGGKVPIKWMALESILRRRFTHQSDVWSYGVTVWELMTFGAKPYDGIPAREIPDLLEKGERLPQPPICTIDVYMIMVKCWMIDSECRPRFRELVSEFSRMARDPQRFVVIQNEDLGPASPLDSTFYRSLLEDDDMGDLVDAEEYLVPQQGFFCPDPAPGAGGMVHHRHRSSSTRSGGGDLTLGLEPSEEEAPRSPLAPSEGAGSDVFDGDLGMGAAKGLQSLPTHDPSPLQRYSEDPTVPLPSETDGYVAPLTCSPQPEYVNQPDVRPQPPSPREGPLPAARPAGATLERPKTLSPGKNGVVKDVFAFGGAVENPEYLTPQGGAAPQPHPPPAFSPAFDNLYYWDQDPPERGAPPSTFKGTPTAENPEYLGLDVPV

| Compound | GI50 [1] [nM] | IC50 [2] [nM] | GI50 [3] [nM] | IC50 [4] [nM] | GI50 ([1]; CellTiter-Glo) [nM] | IC50 ([2]; biochemical Lance assay) [nM] | GI50 ([3]; CellTiter-Glo) [nM] | IC50 [5] [nM] | IC50 [6] [nM] | IC50 [7] [nM] |
| --- | --- | --- | --- | --- | --- | --- | --- | --- | --- | --- |
| C=CC(=O)Nc1cc(-c2c(-c3ccc(N4CCN(C)CC4)cc3)[nH]c3nccc(Cl)c23)ccc1C [drawing 711] | 64 | 5 | 35 |  |  |  |  |  |  |  |
| C=CC(=O)Nc1cc(-c2c(-c3cccc(C(=O)N4CCN(C)CC4)c3)[nH]c3nccc(Cl)c23)ccc1C [Example 44, N-(5-(4-chloro-2-(3-(4-methylpiperazine-1-carbonyl)phenyl)-1H-pyrrolo[2,3-b]pyridin-3-yl)-2-methylphenyl)acrylamide 2,2,2-trifluoroacetate] |  |  |  | ≤ 100 | 1000 to 10000 | 100 to 500 | 1000 to 10000 | 100 to 500 | 100 to 500 |  |
| C=CC(=O)Nc1cc(-c2c(-c3ccc(Cl)c(C(=O)N4CCOCC4)c3)[nH]c3nccc(Cl)c23)ccc1C [Example 34, N-(5-(4-chloro-2-(4-chloro-3-(morpholine-4-carbonyl)phenyl)-1H-pyrrolo[2,3-b]pyridin-3-yl)-2-methylphenyl)acrylamide] |  |  |  | 100 to 500 | 1000 to 10000 | 1000 to 10000 | 1000 to 10000 | 1000 to 100000 | 500 to 1000 |  |
| C=CC(=O)Nc1cc(-c2c(-c3ccc(N4CCN(C)CC4)cc3)[nH]c3ncc(C(=O)OC(C)C)c(C)c23)ccc1C [Example 198, isopropyl 3-(3-acrylamido-4-methylphenyl)-4-methyl-2-(4-(4-methylpiperazin-1-yl)phenyl)-1H-pyrrolo[2,3-b]pyridine-5-carboxylate] |  |  |  | ≤ 100 |  | ≤ 100 |  | ≤ 100 | 100 to 500 | 500 to 1000 |
| C=CC(=O)Nc1cc(-c2c(-c3cccc(C(=O)N4CCC5(CCNC5=O)CC4)c3)[nH]c3nccc(Cl)c23)ccc1C [Example 46, N-(5-(4-chloro-2-(3-(1-oxo-2,8-diazaspiro[4.5]decane-8-carbonyl)phenyl)-1H-pyrrolo[2,3-b]pyridin-3-yl)-2-methylphenyl)acrylamide] |  |  |  | ≤ 100 | 1000 to 10000 | 1000 to 10000 | 1000 to 10000 | 500 to 1000 | 1000 to 100000 |  |
| C=CC(=O)Nc1cc(-c2c(-c3cccc(C(=O)N4CCCCCC4)c3)[nH]c3nccc(Cl)c23)ccc1C [Example 45, N-(5-(2-(3-(azepane-1-carbonyl)phenyl)-4-chloro-1H-pyrrolo[2,3-b]pyridin-3-yl)-2-methylphenyl)acrylamide] |  |  |  | 100 to 500 | 1000 to 10000 | > 10000 | 1000 to 10000 | 1000 to 100000 | 1000 to 100000 |  |
| C=CC(=O)Nc1cc(-c2c(-c3cccc(C(=O)N4CCN(C(C)=O)CC4)c3)[nH]c3nccc(Cl)c23)ccc1C [Example 52, N-(5-(2-(3-(4-acetylpiperazine-1-carbonyl)phenyl)-4-chloro-1H-pyrrolo[2,3-b]pyridin-3-yl)-2-methylphenyl)acrylamide] |  |  |  | ≤ 100 | 1000 to 10000 | 100 to 500 | 1000 to 10000 | 100 to 500 | 100 to 500 |  |
| C=CC(=O)Nc1cc(-c2c(-c3cccc(C(=O)N4CCC5(CC4)CN(C)C5)c3)[nH]c3nccc(Cl)c23)ccc1C [Example 53, N-(5-(4-chloro-2-(3-(2-methyl-2,7-diazaspiro[3.5]nonane-7-carbonyl)phenyl)-1H-pyrrolo[2,3-b]pyridin-3-yl)-2-methylphenyl)acrylamide] |  |  |  | ≤ 100 | 1000 to 10000 | ≤ 100 | 1000 to 10000 | ≤ 100 | 100 to 500 |  |
| C=CC(=O)Nc1cc(-c2c(-c3ccc(F)c(C(=O)N4CCOCC4)c3)[nH]c3nccc(Cl)c23)ccc1C [Example 33, N-(5-(4-chloro-2-(4-fluoro-3-(morpholine-4-carbonyl)phenyl)-1H-pyrrolo[2,3-b]pyridin-3-yl)-2-methylphenyl)acrylamide] |  |  |  | 100 to 500 | 1000 to 10000 | 1000 to 10000 | 1000 to 10000 | 500 to 1000 | 100 to 500 |  |
| C=CC(=O)Nc1cc(-c2c(-c3cccc(N4CCN(C(C)=O)CC4)c3)[nH]c3nccc(Cl)c23)ccc1C [Example 35, N-(5-(2-(3-(4-acetylpiperazin-1-yl)phenyl)-4-chloro-1H-pyrrolo[2,3-b]pyridin-3-yl)-2-methylphenyl)acrylamide] |  |  |  | ≤ 100 | 500 to 1000 | 100 to 500 | 500 to 1000 | ≤ 100 | ≤ 100 |  |
| C=CC(=O)Nc1cc(-c2c(-c3cccc(C(=O)NC4CCCCC4)c3)[nH]c3nccc(Cl)c23)ccc1C [Example 50, 3-(3-(3-acrylamido-4-methylphenyl)-4-chloro-1H-pyrrolo[2,3-b]pyridin-2-yl)-N-cyclohexylbenzamide] |  |  |  | 100 to 500 | 1000 to 10000 | > 10000 | 1000 to 10000 | 1000 to 100000 | 500 to 1000 |  |
| CCC(=O)Nc1cc(-c2c(-c3ccc(N4CCN(C)CC4)cc3)[nH]c3nccc(Cl)c23)ccc1C [reference compound] | 754 | 916 | 1310 |  |  |  |  |  |  |  |
| C=CC(=O)Nc1cc(-c2c(-c3cccc(C(=O)NCCCN(C)Cc4ccccc4)c3)[nH]c3nccc(Cl)c23)ccc1C [Example 51, 3-(3-(3-acrylamido-4-methylphenyl)-4-chloro-1H-pyrrolo[2,3-b]pyridin-2-yl)-N-(3-(benzyl(methyl)amino)propyl)benzamide] |  |  |  | ≤ 100 | 500 to 1000 | 100 to 500 | 500 to 1000 | ≤ 100 | ≤ 100 |  |
| C=CC(=O)Nc1cc(-c2c(-c3cccc(C(=O)NC4CC4)c3)[nH]c3nccc(Cl)c23)ccc1C [Example 49, 3-(3-(3-acrylamido-4-methylphenyl)-4-chloro-1H-pyrrolo[2,3-b]pyridin-2-yl)-N-cyclopropylbenzamide] |  |  |  | ≤ 100 | 500 to 1000 | 500 to 1000 | 1000 to 10000 | 100 to 500 | 100 to 500 |  |

Reference: patent US20220370440A1 (Lead Discovery Center GmbH, priority 2018, published 2022)
